The record followed here is publication PMC7707092, “Discovery and characterization of ORM‐11372, a novel inhibitor of the sodium‐calcium exchanger with positive inotropic activity” (British Journal of Pharmacology, 2020).

One may read the IC50 as the concentration at which inhibition is half-maximal.

Each structure is given as a SMILES string. Several values for one entry are separate records, joined by “and”; a condition that tells them apart may be missing. Identical values can stand only once. Like-named read-outs stand apart in the source and are kept apart here.

Test [1] relates to healthy rabbits. As to the kind of experiment: Haemodynamics in anaesthetized rabbits. It counts as in vivo, rabbit. Details: cardiac relaxation / HR / systolic BP: dose or concentration left out as unconfirmed. On the procedure: All animals were given multiple ascending infusion doses of ORM‐11372; blinding was not possible. Systemic BP (SP) and left ventricular pressure (LVP) values were measured with pressure transducers (SP for femoral artery: Isotec, Hugo Sachs Elektronic, Germany; a miniature pressure transducer Mikro‐Tip transducer SPR‐249, Millar Instruments was inserted into the left ventricle via the right carotid artery). The signal was amplified (DC‐bridge amplifier type 660, Hugo Sachs Elektronik, Germany), digitized (I/O connector block type SCB‐68, National Instruments, USA), recorded, and analysed (IHME 1.0.9, Fision Ltd, Finland). Left ventricular inotropic effect (LV + dP/dt max), relaxation (LV − dP/dt min), and HR values were analysed from LVP signals.
Male New Zealand white rabbits (Harlan, Netherlands B.V.) were housed individually in polycarbonate cages (Scanbur Number 8 plastic cages with stainless steel door) with aspen bedding (Aspen Bricks M, Tapvei Ky, Kaavi, Finland). The acclimation period before experiments was at least 21 days. Rabbits weighing 2.0–2.3 kg (age 10–12 weeks) were used for haemodynamically assessing ORM‐11372 (no randomization, baseline values as own control). The diet provided to rabbits was SDS Stanrab (P) SQC pelleted (Special Diet Services Ltd, Witham, England). Water was provided ad libitum in polycarbonate bottles (750 ml).
Rabbits (n = 5) were sedated with i.v. (marginal vein) diazepam (2 mg·kg^−1, Diapam®, Orion Pharma). Anaesthesia was induced with i.v. S‐ketamine (10–20 mg·kg^−1 Ketanest‐S®, Pfizer) and maintained with S‐ketamine i.v. infusion (15–80 mg·kg^−1·h^−1). Animals were placed on a heating table (+38°C), and tracheas were cannulated. Rabbits were ventilated via a rodent ventilator (Ugo Basile 7025, Hugo Sachs Elektronik, Germany; respiratory volume 10 ml·kg^−1, 30 strokes·min^−1 for rabbits). […]

The target of test [2] is T1, human NCX 1.1 current (I NCX) (Homo sapiens, UniProt P32418).
T1 construct: Cor.4U cells express cardiac proteins including NCX1; host or cells: Cor.4U hiPSC-derived cardiomyocytes
As to the kind of experiment: NCX current (I NCX), whole‐cell patch‐clamp in hiPSC‐derived cardiomyocytes. In kind it is cell-based. To be noted: hiPSC‐CMs, 35–37°C. The text has this:
Human‐induced pluripotent stem cell (hiPSC)‐derived CMs (Cor.4U CMs; RRID:CVCL_Y550) were thawed, seeded onto gelatine‐coated coverslips, and maintained, as described in the manufacturer's protocol.
Manual patch‐clamp recordings of membrane currents (I NCX, L‐type Ca^2+ channel current [I CaL], human cardiac sodium 1.5 current [I Na], and I hERG) were undertaken using either an Axopatch 200B or Axopatch ID amplifier (Molecular Devices, USA), using the whole‐cell configuration. […]
The measurement of current in the K^+‐free bath solution using a ramp voltage protocol at 20‐s intervals represented the first control, after which values were measured in the presence of one or more increasing concentrations of ORM‐11372 and finally upon exposure to 10‐mM NiCl2. […] Therefore, to enhance the inward current and enable a solution with a certain concentration of ORM‐11372 to be measured, the concentrations of the K^+‐free and pipette solutions were altered. […] The outward human I NCX inhibition current was measured at the following ORM‐11372 concentrations: 3 (n = 4), 10 (n = 6), 30 (n = 4), and 100 (n = 3) nM. […] The outward I NCX current in rat CMs was measured at concentrations ranging from 1 to 1,000 nM (n = 5). The inward I NCX current in rats was measured in additional experiments under changed conditions, to enhance the inward I NCX current. […]

Consider `Nc1cccc(-c2ccc(CNc3ccc(F)cc3)o2)c1` [ORM‐11372], for which, in test [1], the HR entry was “did not have any effects”, the cardiac relaxation entry is “did not have any effects” and the “systolic BP” value is listed as “did not have any effects”. Besides, the “increase in cardiac contractility (LV + dP/dt max)” value in test [1] (infusion 833 μg·kg^−1·min^−1) amounted to 35 ± 8%. Further, the IC50 in test [2] (Ni^2+‐sensitive current at +60 mV, read-out: IC50 outward (reverse) I NCX) is 4.8 nM and 5 nM. For the same compound, the IC50 in test [2] (Ni^2+‐sensitive current at −100 mV, read-out: IC50 inward (forward) I NCX) was 5.6 nM and 6 nM.
